Results reported in publication PMC10552107 (ACS Omega, 2023).

Assays:
[1] = target: PD-L1 receptor (Mus musculus, UniProt Q9EP73); experiment: Membrane receptor expression analysis using flow cytometry; format: cell-based, murine; settings: 4T1, 500 nM, APC-conjugated PD-L1 antibody
[2] = test system: CD47/SIRPα axis; experiment: In vitro phagocytosis assay, BMDMs cocultured with CT26.CL25; format: cell-based, BALB/c mice; settings: 30 min treatment of CT26.CL25, 200 nM; comparison of the two treated groups

Sequence of PD-L1 receptor (Q9EP73 19-290): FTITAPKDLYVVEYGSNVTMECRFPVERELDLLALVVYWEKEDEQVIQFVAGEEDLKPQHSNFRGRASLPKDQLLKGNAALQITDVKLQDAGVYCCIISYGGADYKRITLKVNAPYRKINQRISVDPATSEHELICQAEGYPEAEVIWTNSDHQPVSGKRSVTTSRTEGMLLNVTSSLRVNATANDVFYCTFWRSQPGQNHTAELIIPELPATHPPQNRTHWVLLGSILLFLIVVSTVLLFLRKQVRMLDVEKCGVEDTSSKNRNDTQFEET

Row | Substance | PD-L1 expression (percentage of positive cells) ([1]; 1 h) [%] | PD-L1 expression (percentage of positive cells) ([1]; 48 h) [%] | phagocytic index (%) [2]
1 | D-peptide NYSKPTDRQYHF [PD-L1-ligand] | 3.29 | 7.82 | –
2 | EEELQIIQPDKSVLVAAGETATLRCTITSLFPVGPIQWFRGAGPGRVLIYNQRQGPFPRVTTVSDTTKRNNMDFSIRIGNITPADAGTYYCIKFRKGSPDDVEFKSGAGTELSVRAKP [CD47-ligand] | – | – | similar
